What was measured:
[1] = system: Mast/stem cell growth factor receptor Kit (Homo sapiens), P10721 [D816V]; conditions: Compound concentration 1000.0 nM
[2] = target: Cyclin-dependent kinase 7 (Homo sapiens) (UniProt P50613); conditions: Compound concentration 1000.0 nM
[3] = system: Phosphatidylinositol 4,5-bisphosphate 3-kinase catalytic subunit alpha isoform (Homo sapiens), P42336 [E542K]; conditions: Compound concentration 1000.0 nM
[4] = target: Muscarinic acetylcholine receptor M4 (Homo sapiens) (UniProt P08173); conditions: Compound concentration 10.0 uM
Chain of Muscarinic acetylcholine receptor M4 (Homo sapiens) (P08173 whole entry): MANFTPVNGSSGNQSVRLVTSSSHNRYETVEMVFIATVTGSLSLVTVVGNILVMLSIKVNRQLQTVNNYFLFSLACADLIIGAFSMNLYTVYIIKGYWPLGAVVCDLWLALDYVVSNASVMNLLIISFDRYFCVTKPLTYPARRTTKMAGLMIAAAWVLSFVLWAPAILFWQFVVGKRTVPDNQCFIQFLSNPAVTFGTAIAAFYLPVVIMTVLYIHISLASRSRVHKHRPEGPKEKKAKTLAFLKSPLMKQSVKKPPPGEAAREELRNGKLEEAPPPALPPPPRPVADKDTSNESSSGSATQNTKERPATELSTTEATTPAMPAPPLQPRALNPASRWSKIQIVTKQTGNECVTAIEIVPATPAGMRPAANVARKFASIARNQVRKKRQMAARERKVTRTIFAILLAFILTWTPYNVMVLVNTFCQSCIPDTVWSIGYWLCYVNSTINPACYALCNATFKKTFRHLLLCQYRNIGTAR

[5] = target: Calcium/calmodulin-dependent protein kinase kinase 1 (Homo sapiens) (UniProt Q8N5S9); conditions: Compound concentration 1000.0 nM
Chain of Calcium/calmodulin-dependent protein kinase kinase 1 (Homo sapiens) (Q8N5S9 whole entry, looked up): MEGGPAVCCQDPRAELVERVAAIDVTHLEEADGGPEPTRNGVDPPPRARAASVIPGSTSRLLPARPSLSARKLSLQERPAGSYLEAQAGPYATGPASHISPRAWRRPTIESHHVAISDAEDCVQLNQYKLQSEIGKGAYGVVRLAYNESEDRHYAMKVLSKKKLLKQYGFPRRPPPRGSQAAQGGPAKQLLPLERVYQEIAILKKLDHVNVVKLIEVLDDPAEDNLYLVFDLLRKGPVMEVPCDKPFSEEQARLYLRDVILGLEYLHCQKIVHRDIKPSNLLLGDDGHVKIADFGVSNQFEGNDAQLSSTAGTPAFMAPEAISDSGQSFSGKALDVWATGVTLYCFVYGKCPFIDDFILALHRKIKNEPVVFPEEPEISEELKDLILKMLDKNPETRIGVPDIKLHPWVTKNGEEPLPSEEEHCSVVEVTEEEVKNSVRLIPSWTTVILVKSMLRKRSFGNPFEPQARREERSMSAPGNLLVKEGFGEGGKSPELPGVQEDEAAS

[6] = target: T1, Serine/threonine-protein kinase haspin (Homo sapiens) (UniProt Q8TF76); conditions: Compound concentration 1000.0 nM
T1 sequence (whole entry): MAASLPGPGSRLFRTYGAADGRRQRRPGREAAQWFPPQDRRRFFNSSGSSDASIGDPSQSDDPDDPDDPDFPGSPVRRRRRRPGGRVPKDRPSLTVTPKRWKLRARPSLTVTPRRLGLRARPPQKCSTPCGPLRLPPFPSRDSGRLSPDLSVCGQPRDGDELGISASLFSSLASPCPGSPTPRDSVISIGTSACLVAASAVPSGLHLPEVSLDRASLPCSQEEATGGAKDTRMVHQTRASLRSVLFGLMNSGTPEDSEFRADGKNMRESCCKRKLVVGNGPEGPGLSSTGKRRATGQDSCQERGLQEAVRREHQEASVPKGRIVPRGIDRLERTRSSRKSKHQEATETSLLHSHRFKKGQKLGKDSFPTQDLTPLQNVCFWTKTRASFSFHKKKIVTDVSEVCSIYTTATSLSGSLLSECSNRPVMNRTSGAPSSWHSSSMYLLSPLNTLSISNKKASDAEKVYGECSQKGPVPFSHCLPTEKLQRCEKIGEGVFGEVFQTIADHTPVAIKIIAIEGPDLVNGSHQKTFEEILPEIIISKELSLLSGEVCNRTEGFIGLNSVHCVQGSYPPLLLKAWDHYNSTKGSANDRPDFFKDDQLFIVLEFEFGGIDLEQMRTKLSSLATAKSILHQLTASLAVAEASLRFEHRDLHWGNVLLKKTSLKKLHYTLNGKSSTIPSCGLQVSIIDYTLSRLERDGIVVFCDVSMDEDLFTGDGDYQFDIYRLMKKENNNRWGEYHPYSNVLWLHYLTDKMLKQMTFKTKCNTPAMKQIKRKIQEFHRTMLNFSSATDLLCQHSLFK

[7] = target: Phosphatidylinositol 5-phosphate 4-kinase type-2 gamma (Homo sapiens) (UniProt Q8TBX8); conditions: Compound concentration 1000.0 nM
Chain of Phosphatidylinositol 5-phosphate 4-kinase type-2 gamma (Homo sapiens) (Q8TBX8 whole entry, the tested form may be a part): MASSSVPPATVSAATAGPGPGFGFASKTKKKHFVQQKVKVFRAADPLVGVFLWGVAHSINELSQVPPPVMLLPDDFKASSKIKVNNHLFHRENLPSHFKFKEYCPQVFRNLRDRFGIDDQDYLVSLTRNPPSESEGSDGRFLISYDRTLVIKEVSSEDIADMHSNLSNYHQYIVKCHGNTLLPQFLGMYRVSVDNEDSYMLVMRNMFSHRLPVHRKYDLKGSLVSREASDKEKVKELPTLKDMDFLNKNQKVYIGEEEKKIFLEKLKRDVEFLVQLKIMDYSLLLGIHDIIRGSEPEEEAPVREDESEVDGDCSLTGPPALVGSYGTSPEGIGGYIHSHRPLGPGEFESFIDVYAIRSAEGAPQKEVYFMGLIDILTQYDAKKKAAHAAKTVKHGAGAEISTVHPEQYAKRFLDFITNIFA

[8] = target: T2, Phosphatidylinositol 3-kinase C2 domain-containing subunit gamma (Homo sapiens) (UniProt O75747); conditions: Compound concentration 1000.0 nM
T2 sequence (whole entry): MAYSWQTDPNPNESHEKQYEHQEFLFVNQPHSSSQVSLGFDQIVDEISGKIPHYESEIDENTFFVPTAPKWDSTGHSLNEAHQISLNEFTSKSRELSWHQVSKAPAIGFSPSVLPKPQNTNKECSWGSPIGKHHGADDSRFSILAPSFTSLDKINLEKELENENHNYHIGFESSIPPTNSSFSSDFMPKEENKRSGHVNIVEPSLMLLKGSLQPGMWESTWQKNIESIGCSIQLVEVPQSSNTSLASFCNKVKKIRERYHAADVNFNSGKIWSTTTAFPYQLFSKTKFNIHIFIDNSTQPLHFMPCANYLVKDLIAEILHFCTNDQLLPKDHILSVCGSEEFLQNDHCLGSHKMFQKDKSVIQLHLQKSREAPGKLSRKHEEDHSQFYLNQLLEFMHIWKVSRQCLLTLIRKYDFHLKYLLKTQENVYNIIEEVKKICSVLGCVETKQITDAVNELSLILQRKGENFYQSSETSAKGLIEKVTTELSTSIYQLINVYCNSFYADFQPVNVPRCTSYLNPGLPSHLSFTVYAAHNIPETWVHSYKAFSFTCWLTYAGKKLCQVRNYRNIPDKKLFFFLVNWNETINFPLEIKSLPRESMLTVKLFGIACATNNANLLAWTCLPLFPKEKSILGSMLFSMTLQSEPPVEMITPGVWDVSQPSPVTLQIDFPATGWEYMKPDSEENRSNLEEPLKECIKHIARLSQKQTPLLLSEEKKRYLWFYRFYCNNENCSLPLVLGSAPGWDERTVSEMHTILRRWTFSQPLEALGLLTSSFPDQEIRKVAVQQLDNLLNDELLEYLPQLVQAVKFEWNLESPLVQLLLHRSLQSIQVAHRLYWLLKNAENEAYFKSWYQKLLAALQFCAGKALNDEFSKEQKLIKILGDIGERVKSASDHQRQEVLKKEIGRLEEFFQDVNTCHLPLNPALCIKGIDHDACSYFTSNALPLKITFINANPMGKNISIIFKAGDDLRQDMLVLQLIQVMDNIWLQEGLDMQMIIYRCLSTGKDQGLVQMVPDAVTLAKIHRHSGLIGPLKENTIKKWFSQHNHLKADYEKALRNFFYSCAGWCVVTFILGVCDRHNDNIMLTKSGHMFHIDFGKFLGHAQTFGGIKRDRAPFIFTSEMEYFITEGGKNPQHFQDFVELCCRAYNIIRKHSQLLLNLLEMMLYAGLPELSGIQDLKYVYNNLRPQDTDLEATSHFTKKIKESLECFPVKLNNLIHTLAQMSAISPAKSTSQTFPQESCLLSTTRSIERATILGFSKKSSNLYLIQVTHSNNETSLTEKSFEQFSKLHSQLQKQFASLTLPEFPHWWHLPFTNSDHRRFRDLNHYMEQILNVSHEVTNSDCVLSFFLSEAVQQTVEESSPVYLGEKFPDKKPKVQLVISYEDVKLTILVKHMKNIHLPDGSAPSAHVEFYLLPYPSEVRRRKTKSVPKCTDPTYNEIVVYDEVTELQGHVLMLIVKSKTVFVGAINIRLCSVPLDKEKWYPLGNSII

[9] = target: 5'-AMP-activated protein kinase catalytic subunit alpha-2 (Homo sapiens, UniProt P54646); conditions: Compound concentration 1000.0 nM
Chain of 5'-AMP-activated protein kinase catalytic subunit alpha-2 (P54646 whole entry, looked up): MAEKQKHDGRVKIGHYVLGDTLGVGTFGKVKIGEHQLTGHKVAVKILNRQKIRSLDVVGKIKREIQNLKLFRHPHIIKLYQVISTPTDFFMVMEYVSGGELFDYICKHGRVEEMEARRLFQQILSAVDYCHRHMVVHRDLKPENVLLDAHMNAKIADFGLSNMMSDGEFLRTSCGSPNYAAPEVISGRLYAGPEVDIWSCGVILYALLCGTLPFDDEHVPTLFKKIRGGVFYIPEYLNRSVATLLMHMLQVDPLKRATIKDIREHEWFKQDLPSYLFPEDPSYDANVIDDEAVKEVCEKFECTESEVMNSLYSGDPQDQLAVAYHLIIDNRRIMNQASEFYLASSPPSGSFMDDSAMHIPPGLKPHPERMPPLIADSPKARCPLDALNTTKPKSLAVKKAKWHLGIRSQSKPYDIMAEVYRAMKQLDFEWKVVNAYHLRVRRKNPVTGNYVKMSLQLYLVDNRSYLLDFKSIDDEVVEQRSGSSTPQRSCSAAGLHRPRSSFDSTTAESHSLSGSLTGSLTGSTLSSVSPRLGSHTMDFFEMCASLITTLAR

[10] = target: Homeodomain-interacting protein kinase 2 (Homo sapiens) (UniProt Q9H2X6); conditions: Compound concentration 1000.0 nM
[11] = target: Mitogen-activated protein kinase kinase kinase 10 (Homo sapiens) (UniProt Q02779); conditions: Compound concentration 1000.0 nM
Chain of Mitogen-activated protein kinase kinase kinase 10 (Homo sapiens) (Q02779 whole entry, looked up): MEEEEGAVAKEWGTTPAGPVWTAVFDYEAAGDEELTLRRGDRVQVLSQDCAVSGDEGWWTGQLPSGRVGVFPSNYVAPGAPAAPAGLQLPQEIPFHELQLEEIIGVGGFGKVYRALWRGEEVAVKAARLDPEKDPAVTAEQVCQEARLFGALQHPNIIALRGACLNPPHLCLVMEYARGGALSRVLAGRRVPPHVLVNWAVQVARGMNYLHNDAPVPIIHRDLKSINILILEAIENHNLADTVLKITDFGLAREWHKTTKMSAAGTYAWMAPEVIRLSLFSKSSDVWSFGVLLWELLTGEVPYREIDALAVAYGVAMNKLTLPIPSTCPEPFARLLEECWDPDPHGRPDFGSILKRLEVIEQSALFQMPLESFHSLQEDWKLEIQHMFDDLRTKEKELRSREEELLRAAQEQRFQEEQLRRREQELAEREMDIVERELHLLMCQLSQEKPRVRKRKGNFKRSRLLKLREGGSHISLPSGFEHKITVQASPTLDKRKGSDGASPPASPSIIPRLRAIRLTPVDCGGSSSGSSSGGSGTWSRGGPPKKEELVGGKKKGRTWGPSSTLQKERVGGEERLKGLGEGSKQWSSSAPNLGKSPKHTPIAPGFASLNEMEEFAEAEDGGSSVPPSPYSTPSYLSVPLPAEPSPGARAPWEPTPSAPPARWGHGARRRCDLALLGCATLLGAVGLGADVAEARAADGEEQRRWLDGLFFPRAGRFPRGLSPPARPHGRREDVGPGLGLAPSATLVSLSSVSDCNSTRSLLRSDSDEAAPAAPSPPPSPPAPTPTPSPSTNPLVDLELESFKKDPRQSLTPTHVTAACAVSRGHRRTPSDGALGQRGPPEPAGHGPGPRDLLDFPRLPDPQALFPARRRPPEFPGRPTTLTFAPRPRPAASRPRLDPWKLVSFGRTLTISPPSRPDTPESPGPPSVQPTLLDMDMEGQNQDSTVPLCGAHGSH

[12] = target: 5-hydroxytryptamine receptor 5A (Homo sapiens) (UniProt P47898); conditions: Compound concentration 10.0 uM
Chain of 5-hydroxytryptamine receptor 5A (Homo sapiens) (P47898 whole entry): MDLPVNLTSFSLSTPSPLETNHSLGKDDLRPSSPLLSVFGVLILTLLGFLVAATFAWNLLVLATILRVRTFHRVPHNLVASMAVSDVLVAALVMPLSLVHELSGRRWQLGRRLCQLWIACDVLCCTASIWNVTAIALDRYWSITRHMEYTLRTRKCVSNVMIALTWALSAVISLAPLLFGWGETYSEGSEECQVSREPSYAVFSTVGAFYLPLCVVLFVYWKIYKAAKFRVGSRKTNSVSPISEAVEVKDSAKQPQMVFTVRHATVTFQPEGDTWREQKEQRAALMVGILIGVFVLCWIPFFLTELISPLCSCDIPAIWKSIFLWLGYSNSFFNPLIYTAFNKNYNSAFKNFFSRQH

[13] = target: Protein kinase C iota type (Homo sapiens) (UniProt P41743); conditions: Compound concentration 1000.0 nM
Chain of Protein kinase C iota type (Homo sapiens) (P41743 whole entry): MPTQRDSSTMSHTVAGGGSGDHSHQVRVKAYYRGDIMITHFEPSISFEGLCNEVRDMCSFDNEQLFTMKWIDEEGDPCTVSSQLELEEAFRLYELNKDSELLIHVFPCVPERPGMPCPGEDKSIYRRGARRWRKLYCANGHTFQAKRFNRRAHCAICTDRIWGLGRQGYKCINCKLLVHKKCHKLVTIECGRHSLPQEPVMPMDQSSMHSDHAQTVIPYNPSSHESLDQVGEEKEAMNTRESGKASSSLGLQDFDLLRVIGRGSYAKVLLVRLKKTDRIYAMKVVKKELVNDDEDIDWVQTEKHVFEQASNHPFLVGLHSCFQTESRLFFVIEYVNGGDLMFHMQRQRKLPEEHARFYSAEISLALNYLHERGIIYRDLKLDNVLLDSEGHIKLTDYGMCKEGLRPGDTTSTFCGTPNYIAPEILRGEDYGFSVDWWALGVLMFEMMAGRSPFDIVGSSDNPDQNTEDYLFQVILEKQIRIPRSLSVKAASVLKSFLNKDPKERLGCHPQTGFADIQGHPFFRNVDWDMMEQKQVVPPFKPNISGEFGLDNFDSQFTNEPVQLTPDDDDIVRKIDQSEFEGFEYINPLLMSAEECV

Chain of Phosphatidylinositol 4,5-bisphosphate 3-kinase catalytic subunit alpha isoform (Homo sapiens), P42336 [E542K] (P42336 whole entry E542K, canonical isoform): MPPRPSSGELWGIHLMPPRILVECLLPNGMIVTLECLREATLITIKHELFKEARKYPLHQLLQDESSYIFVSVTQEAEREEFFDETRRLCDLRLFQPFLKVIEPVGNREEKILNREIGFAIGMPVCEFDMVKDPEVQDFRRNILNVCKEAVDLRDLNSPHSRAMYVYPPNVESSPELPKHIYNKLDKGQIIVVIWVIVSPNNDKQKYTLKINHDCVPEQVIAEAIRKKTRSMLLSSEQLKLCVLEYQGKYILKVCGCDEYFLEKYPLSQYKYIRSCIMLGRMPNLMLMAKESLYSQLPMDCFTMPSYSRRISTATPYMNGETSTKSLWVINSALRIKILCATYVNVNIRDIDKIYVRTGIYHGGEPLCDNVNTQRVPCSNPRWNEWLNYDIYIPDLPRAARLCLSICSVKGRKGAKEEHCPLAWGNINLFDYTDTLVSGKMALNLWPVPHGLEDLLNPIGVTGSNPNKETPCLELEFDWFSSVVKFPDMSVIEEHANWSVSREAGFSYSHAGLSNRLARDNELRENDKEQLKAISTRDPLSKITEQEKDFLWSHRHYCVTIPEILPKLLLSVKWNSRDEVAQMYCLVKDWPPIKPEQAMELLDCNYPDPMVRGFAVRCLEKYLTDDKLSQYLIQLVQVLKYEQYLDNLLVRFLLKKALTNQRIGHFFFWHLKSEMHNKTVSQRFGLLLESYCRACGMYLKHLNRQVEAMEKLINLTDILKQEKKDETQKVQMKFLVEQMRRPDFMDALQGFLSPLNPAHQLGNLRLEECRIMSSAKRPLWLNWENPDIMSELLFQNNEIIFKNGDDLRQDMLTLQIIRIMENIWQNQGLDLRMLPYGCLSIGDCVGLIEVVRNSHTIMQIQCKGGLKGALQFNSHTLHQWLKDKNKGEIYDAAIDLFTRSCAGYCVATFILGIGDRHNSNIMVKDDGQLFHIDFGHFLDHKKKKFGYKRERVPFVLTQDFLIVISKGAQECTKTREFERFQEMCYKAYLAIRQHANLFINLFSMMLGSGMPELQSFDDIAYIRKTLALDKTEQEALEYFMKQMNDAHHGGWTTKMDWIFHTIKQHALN

Row | Compound | residual activity [1] [%] | residual activity [2] [%] | residual activity [3] [%] | inhibition [4] [%] | residual activity [5] [%] | residual activity [6] [%] | residual activity [7] [%] | residual activity [8] [%] | residual activity [9] [%] | residual activity [10] [%] | residual activity [11] [%] | inhibition [12] [%] | residual activity [13] [%]
1 | CC1=C(C#N)C(c2ccc3c(c2)c(NC(=O)c2ccccc2C)nn3C)C(C#N)=C(C)N1 [BAY-974] | 85 | 58 | 91 | 6.87 | 100 | 71 | 92 | 61 | 99 | 73 | 69 | 0.04 | 66
2 | CCc1ccccc1C(=O)Nc1n[nH]c2c(C)c(F)c(C3C(C#N)=C(C)N(C)C(C)=C3C#N)cc12 [BAY-3827] | 55 | 90 | 54 | 8.27 | 100 | 100 | 77 | 95 | 0 | 100 | 100 | 19.9 | 82
